In ChEMBL document CHEMBL1201862, “PubChem BioAssay data set” (2004):
The source made the active and inactive calls.

How the values were obtained:
[1] = molecular target: T1, G-protein coupled receptor 55 (Homo sapiens, UniProt Q9Y2T6); assay: GPR55 antagonists blocking LPI-driven arrestin recruitment, primary screen, imaging, U2OS, beta-arrestin-GFP, LPI agonist (AID 2013); format: functional;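 further: antagonist potency measured as reduced agonist-driven arrestin aggregation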
[2] = molecular target: T2, X-box-binding protein 1 (Homo sapiens, UniProt P17861); format: functional, Cricetulus griseus;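 further: confirmatory dose-response counter-screen serving a CHOP assay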
T2 sequence (P17861 whole entry): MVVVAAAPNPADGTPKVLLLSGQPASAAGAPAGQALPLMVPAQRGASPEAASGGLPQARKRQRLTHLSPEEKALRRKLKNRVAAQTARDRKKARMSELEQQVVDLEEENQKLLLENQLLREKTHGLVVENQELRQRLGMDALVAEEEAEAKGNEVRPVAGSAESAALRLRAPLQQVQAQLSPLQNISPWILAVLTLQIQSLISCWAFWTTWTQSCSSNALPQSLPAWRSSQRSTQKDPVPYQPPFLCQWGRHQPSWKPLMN

[3] = off-target signal loss in HeLa-CEM21 co-culture – HeLa F-luc CTL cells, cherry-picked, counter-screen for HIV-1 Env fusion inhibitor project, dose response (AID 652040); format: functional, cell-based;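 further: potency for signal decrease marking cytotoxic or nonspecific inhibition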
[4] = molecular target: T1, G-protein coupled receptor 55; assay: GPR55 antagonist potency of analogs, SAR follow-up, imaging, U2OS, beta-arrestin-GFP, LPI agonist, set 2 (AID 2820); format: functional
[5] = CEM21 lymphoblast cell cytotoxicity, dose response, cytotoxicity control for viral fusion inhibitor project, CellTiter-Glo luminescence, cherry-picked (AID 652042); format: functional, cell-based;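 further: potency for signal decrease meaning cytotoxicity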
[6] = molecular target: T3, Cannabinoid receptor 2 (Homo sapiens, UniProt P34972); assay: SAR analysis of agonists of the Cannabinoid Receptor 2 using an Image-Based Assay. [Related pubchem assays (depositor defined):AID2013, AID2026]; format: functional
[7] = molecular target: T4, Cannabinoid receptor 1 (Homo sapiens, UniProt P21554); assay: SAR analysis of agonists of the Cannabinoid Receptor 1 using an Image-Based Assay - Set 2. [Related pubchem assays (depositor defined):AID2013, AID2026]; format: functional
[8] = molecular target: T5, G-protein coupled receptor 35 (Homo sapiens, UniProt Q9HC97); assay: SAR analysis of Antagonists of the GPR35 Receptor using an Image-Based Assay - Set 3. [Related pubchem assays (depositor defined):AID2013, AID2026]; format: functional
[9] = inhibitors of HIV Env-driven cell fusion, dose response, cherry-pick (AID 652057); format: functional, cell-based
[10] = ZM109 Env clade C HIV-1 fusion inhibitors, dose response, HeLa effector, CEM target cells, luciferase, cherry-pick (AID 652058); format: functional, cell-based
[11] = inhibitors of clade B AD8 Env fusion, dose response, cell-based, cherry-pick (AID 652062); format: functional;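 further: luciferase signal from cell-cell fusion driven by HIV-1 clade B AD8 Env; potency is for inhibitors of fusion seen as a drop in luminescence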
[12] = molecular target: T3, Cannabinoid receptor 2; assay: SAR analysis of antagonists of the Cannabinoid Receptor 2 using an Image-Based Assay. [Related pubchem assays (depositor defined):AID2013, AID2026]; format: functional
[13] = molecular target: T4, Cannabinoid receptor 1; assay: SAR analysis of antagonists of the Cannabinoid Receptor 1 using an Image-Based Assay - Set 2. [Related pubchem assays (depositor defined):AID2013, AID2026]; format: functional
[14] = molecular target: T5, G-protein coupled receptor 35; assay: SAR analysis of Agonists of the GPR35 Receptor using an Image-Based Assay - Set 2. [Related pubchem assays (depositor defined):AID2013, AID2026]; format: functional
[15] = molecular target: T6, Protein RecA (Mycobacterium tuberculosis, UniProt P9WHJ3); assay: Fluorescence Cell-Free Homogeneous Dose Retest to Identify Inhibitors of RecA-Intein Splicing Activity. [Related pubchem assays (depositor defined):AID2097, AID2223, AID489010, AID492950]; format: functional
T6 sequence (P9WHJ3 whole entry): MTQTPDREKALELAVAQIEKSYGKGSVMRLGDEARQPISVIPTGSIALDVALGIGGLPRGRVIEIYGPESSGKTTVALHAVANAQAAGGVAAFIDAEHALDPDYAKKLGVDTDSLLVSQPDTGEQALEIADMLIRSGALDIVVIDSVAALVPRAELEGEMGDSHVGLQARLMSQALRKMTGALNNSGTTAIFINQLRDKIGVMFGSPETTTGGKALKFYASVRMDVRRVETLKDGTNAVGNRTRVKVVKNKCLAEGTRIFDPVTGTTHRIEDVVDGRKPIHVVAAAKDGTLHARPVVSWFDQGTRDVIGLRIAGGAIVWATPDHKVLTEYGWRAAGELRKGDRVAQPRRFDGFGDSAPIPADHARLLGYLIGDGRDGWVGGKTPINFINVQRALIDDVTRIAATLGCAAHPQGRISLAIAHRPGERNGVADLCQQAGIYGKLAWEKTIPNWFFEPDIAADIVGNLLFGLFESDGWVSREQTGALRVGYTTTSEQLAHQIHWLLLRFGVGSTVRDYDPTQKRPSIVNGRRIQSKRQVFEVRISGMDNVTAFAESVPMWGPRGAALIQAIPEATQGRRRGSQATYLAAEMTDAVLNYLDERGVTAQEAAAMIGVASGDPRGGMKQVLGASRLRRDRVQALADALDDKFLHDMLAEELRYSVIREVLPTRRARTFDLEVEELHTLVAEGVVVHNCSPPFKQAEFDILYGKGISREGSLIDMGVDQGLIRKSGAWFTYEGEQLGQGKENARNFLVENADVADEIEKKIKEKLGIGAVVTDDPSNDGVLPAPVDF

[16] = molecular target: Mu-type opioid receptor (Homo sapiens, UniProt P35372); assay: HTS Image-Based Screen for Agonists of the MOR Receptor. [Related pubchem assays (depositor defined):AID1777, AID1785, AID1786, AID2133]; format: functional;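 further: imaging of beta-arrestin GFP recruitment into spots after receptor activation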
[17] = molecular target: T7, Delta-type opioid receptor (Homo sapiens, UniProt P41143); assay: HTS Image-Based Screen for Antagonists of the DOR Receptor. [Related pubchem assays (depositor defined):AID1777, AID1785, AID1786, AID2133]; format: functional
[18] = molecular target: T8, Replicative DNA helicase DnaB (Mycobacterium tuberculosis, UniProt P9WMR3); assay: DnaB intein splicing inhibitors, dose response, biochemical, cell-free fluorescence (AID 449749); format: functional
T8 sequence (P9WMR3 whole entry): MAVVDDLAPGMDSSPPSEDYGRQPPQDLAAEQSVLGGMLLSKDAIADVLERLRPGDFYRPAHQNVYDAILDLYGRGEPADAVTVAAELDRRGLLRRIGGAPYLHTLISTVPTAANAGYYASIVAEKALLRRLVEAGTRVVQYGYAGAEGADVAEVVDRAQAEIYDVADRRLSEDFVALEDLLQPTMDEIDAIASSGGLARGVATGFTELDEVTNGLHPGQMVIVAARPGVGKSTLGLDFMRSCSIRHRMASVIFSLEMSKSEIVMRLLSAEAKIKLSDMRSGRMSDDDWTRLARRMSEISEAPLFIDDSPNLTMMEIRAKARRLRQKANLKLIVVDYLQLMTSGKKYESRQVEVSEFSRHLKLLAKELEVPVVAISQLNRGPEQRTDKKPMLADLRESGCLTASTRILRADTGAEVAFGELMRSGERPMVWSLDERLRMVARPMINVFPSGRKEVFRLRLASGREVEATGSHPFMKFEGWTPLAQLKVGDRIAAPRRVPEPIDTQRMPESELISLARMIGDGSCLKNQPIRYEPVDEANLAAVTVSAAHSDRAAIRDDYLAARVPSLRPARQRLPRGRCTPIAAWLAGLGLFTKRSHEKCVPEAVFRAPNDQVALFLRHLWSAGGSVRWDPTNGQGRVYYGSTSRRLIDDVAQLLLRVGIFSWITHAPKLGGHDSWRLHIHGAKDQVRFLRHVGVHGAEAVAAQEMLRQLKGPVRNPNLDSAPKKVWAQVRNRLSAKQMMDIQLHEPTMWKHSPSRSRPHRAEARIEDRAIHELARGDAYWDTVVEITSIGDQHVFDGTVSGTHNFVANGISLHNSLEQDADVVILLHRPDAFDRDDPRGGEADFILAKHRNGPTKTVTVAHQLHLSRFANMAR

[19] = molecular target: T9, Kappa-type opioid receptor (Homo sapiens, UniProt P41145); format: functional
[20] = molecular target: T9, Kappa-type opioid receptor; format: functional; remark: listed apart in the source
[21] = molecular target: T7, Delta-type opioid receptor; assay: HTS Image-Based Screen for Agonists of the DOR Receptor. [Related pubchem assays (depositor defined):AID1777, AID1786, AID2133]; format: functional
[22] = molecular target: Beta-galactosidase (Escherichia coli, UniProt Q8VNN2); format: functional
[23] = molecular target: T5, G-protein coupled receptor 35; assay: SAR analysis of Agonists of the GPR35 Receptor using an Image-Based Assay - Set 4. [Related pubchem assays (depositor defined):AID2013, AID2026]; format: functional
[24] = molecular target: T3, Cannabinoid receptor 2; assay: SAR analysis of antagonists of the Cannabinoid Receptor 2 using an Image-Based Assay - Set 3. [Related pubchem assays (depositor defined):AID2013, AID2026]; format: functional
[25] = molecular target: T4, Cannabinoid receptor 1; assay: SAR analysis of antagonists of the Cannabinoid Receptor 1 using an Image-Based Assay - Set 4. [Related pubchem assays (depositor defined):AID2013, AID2026]; format: functional
[26] = molecular target: T5, G-protein coupled receptor 35; assay: SAR analysis of Antagonists of the GPR35 Receptor using an Image-Based Assay - Set 6. [Related pubchem assays (depositor defined):AID2013, AID2026]; format: functional
[27] = molecular target: T1, G-protein coupled receptor 55; assay: SAR Analysis of Selective Antagonists of GPR55 using an Image-Based Assay - Set 4. [Related pubchem assays (depositor defined):AID2013, AID2026]; format: functional
[28] = molecular target: T3, Cannabinoid receptor 2; assay: SAR analysis of agonists of the Cannabinoid Receptor 2 using an Image-Based Assay - Set 3. [Related pubchem assays (depositor defined):AID2013, AID2026]; format: functional
[29] = molecular target: T4, Cannabinoid receptor 1; assay: SAR analysis of agonists of the Cannabinoid Receptor 1 using an Image-Based Assay - Set 4. [Related pubchem assays (depositor defined):AID2013, AID2026]; format: functional
[30] = mammalian cell cytotoxicity, dose response, cytotoxicity control, plate reader, cherry-pick samples (AID 504397); format: functional, cell-based
[31] = molecular target: CAAX prenyl protease 2 (Saccharomyces cerevisiae S288c, UniProt Q03530); format: biochemical
Sequence of CAAX prenyl protease 2 (Q03530 whole entry): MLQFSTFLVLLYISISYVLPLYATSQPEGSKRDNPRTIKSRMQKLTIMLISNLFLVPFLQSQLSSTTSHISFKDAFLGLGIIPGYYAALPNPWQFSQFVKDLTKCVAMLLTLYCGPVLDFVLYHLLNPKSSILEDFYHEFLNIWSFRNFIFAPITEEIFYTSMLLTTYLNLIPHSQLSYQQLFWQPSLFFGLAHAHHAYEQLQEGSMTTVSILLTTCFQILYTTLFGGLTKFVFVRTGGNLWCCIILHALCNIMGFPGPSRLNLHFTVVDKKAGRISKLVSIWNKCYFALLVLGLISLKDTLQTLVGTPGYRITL

T4 sequence (P21554 whole entry): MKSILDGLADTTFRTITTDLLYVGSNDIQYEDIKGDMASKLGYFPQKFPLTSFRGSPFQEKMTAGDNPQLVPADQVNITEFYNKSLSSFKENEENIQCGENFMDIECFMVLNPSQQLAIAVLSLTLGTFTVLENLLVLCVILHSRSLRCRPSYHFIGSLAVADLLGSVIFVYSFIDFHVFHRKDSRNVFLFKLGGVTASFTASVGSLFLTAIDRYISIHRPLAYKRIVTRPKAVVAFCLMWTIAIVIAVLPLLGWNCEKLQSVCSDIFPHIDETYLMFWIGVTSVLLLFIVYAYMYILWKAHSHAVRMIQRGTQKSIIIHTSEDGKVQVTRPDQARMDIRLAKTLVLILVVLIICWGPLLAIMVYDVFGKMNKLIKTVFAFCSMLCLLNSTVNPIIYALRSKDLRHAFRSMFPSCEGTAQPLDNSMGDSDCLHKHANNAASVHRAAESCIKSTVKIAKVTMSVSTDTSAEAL
T3 sequence (P34972 whole entry): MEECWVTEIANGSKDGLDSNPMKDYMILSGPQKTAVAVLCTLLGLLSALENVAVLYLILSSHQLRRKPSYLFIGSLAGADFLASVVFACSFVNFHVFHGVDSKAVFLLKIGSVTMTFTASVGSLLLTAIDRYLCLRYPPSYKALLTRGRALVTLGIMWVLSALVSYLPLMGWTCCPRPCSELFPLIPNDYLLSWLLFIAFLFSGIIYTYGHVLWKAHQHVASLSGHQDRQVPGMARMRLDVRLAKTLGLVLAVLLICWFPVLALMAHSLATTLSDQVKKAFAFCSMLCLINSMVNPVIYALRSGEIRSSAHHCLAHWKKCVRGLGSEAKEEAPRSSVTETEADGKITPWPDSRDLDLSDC
T5 sequence (Q9HC97 whole entry, the tested form may be a part): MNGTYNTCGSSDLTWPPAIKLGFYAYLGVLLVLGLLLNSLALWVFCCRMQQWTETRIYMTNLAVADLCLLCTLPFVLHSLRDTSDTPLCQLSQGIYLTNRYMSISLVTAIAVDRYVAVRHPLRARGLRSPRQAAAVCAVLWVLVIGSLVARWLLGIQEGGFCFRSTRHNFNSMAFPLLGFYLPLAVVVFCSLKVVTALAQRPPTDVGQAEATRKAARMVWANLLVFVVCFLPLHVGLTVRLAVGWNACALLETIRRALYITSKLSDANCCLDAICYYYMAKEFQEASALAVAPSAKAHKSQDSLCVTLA
T1 sequence (Q9Y2T6 whole entry): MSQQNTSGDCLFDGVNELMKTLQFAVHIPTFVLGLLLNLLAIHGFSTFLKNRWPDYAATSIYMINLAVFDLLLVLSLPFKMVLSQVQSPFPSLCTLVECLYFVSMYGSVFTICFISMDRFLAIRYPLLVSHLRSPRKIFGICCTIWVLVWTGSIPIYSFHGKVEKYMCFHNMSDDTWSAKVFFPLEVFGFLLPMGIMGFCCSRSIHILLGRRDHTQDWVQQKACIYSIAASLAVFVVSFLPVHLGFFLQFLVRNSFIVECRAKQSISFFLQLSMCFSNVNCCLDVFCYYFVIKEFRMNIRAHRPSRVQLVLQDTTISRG
T7 sequence (P41143 whole entry): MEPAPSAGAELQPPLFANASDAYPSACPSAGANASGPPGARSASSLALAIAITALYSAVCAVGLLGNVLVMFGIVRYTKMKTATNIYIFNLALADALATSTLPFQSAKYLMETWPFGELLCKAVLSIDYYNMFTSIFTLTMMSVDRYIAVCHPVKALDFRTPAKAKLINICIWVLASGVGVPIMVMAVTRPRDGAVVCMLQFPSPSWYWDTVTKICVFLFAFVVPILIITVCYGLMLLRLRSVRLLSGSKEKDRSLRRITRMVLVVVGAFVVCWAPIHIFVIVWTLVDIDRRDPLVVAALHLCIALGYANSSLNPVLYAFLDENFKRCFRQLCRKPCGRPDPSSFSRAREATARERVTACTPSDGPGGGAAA
T9 sequence (P41145 whole entry): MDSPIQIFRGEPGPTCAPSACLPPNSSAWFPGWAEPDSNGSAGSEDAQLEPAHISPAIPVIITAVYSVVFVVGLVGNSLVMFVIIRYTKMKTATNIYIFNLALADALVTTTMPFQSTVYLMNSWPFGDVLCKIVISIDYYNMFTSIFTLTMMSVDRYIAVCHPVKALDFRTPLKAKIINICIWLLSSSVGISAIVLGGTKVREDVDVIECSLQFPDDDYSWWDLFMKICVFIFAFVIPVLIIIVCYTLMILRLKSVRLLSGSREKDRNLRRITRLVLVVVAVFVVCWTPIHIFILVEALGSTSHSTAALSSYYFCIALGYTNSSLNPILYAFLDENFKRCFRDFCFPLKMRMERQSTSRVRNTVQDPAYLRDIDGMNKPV
Sequence of Mu-type opioid receptor (P35372 whole entry): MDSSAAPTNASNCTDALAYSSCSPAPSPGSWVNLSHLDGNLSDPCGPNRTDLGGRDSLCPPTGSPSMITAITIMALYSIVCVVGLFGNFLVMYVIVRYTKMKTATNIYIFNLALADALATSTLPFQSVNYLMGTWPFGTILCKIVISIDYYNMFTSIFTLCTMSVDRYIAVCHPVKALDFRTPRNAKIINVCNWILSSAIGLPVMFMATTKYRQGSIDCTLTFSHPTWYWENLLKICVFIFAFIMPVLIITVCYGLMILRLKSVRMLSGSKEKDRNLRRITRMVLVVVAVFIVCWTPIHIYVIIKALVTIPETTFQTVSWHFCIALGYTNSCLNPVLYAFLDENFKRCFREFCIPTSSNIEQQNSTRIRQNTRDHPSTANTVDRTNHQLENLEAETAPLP
Sequence of Beta-galactosidase (Q8VNN2 whole entry): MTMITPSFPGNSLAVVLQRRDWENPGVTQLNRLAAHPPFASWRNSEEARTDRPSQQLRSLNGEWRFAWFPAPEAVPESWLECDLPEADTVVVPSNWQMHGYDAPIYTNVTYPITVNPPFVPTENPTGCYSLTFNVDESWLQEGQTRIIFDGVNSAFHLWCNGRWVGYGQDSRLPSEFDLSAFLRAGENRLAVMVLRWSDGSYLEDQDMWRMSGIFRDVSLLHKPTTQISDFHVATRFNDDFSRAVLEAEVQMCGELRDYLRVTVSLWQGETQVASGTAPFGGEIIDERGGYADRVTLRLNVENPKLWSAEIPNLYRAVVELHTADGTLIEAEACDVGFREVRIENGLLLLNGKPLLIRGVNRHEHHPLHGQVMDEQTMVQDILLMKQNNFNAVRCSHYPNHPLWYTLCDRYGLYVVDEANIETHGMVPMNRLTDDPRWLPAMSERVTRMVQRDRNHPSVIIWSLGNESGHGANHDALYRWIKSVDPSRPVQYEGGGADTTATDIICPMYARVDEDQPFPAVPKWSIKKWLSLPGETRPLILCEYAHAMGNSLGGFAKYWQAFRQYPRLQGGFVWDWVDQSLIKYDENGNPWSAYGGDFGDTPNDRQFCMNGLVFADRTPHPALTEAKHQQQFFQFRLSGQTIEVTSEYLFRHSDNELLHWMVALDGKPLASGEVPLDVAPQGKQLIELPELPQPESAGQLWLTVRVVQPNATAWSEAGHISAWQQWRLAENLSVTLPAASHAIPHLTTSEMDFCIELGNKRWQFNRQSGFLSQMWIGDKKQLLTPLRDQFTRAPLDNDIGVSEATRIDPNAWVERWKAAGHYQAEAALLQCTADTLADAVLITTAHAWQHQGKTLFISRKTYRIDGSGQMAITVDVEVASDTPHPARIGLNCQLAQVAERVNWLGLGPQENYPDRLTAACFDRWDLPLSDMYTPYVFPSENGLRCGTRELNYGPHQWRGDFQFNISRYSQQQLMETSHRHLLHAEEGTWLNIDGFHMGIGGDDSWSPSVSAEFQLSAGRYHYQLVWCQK

With `CC1=CC(C)(C)N2C(=O)C3(SCC(=O)N3c3ccc(F)cc3)c3cc(C)cc1c32` (stereo unspecified) the IC50 [1] was 4.09 µM (active), the “Absolute IC50 (XBP1)” value [2] was < 10 µM and the AC50 [3] was 43.1 µM (active). The IC50 [4] was 1.42 µM (active), the AC50 [5] was 53.1 µM (active) and the EC50 [6] was > 32 µM (inactive). The EC50 [7] was > 32 µM (inactive), the IC50 [8] was > 32 µM (inactive) and the AC50 [9] was 23.7 µM (active). The AC50 [10] was 1.13 µM (active), the AC50 [11] was 21.8 µM (active) and the IC50 [12] was > 32 µM (inactive). The IC50 [13] was 6.41 µM (active) and the EC50 [14] was > 32 µM (inactive).
For `O=[N+]([O-])c1ccc2nc(Cl)nc(-c3ccccc3)c2c1`, the EC50 [15] was > 380 µM (inactive), the EC50 [16] was > 32 µM (inactive) and the IC50 [17] was > 32 µM (inactive). For the same molecule, the AC50 [18] was 134 µM (active), the IC50 [19] was 27.9 µM and the IC50 [20] was 8.95 µM (active). For the same molecule, the EC50 [21] was > 32 µM (inactive) and the EC50 [22] was > 31.5 µM (inactive).
For `Cc1nc(N2CCN(C(=O)C3CCCCC3)CC2)c2c3c(sc2n1)CCCC3`, the EC50 [23] was > 32 µM (inactive), the IC50 [24] was > 16.8 µM (inactive) and the IC50 [25] was 3.05 µM (active). For the same molecule, the IC50 [26] was > 32 µM (inactive), the IC50 [27] was 9.24 µM (active) and the EC50 [28] was > 32 µM (inactive). The EC50 [29] was > 32 µM (inactive).
For `Cc1ccsc1/C=N/NC(=O)c1nnn(-c2nonc2N)c1C(C)C`, the AC50 [30] was 67.6 µM (active) and the AC50 [31] was 0.87 µM (active).
